Laboratory results from ChEMBL document CHEMBL1142656, “Identification of 3-(acylamino)azepan-2-ones as stable broad-spectrum chemokine inhibitors resistant to metabolism in vivo” (2005).

test system: THP-1; test: In vitro activity to inhibit MCP-1-induced leukocyte migration of THP-1 cells; type: functional; conditions: Homo sapiens, read-out: ED50 (the source's name)

First: C=CCCCCCCCCC(=O)N[C@H]1CCCNC1=O
Second: C=CCCCCCCCCC(=O)N[C@H]1CCCCNC1=O
The EC50 of the first is 2.5-fold higher: 100 nM for the first, 40 nM for the second.

First: C=CCCCCCCCCC(=O)N[C@H]1CCC(=O)N(C)C1=O
Second: C=CCCCCCCCCC(=O)N[C@@H]1CCC(=O)NC1=O
The EC50 of the first is 7.6-fold lower: 33 nM for the first, 250 nM for the second. The first is the more potent here.

Going from `C#CCCCCCCCCC(=O)N[C@H]1CCCCNC1=O` to `CCCCCCCCCCC(=O)N[C@H]1CCCCNC1=O`, the EC50 rises from 10 nM to 50 nM (5-fold).

Compared with `CCCCCCCCCCC(=O)N[C@H](CCC(=O)O)C(N)=O`, `CCCCCCCCCCC(=O)N[C@@H](CCC(=O)O)C(N)=O` is 2.7-fold lower in EC50: 40000 nM for the first, 15000 nM for the second.

`CCCCCC/C=C\CCCCCCCC(=O)N[C@H]1CCCCNC1=O` and `CCCCCCCC/C=C\CCCCCCCC(=O)N[C@H]1CCCCNC1=O` are the same in EC50: 3 nM for the first, 3 nM for the second.

First: CCCCCCCCCCC(=O)N[C@@H](CCC(=O)O)C(=O)O
Second: CCCCCCCCCCC(=O)N[C@H](CCC(=O)O)C(=O)O
The EC50 of the first is 2.5-fold lower: 10000 nM for the first, 25000 nM for the second.

First: CCCCCCCCCCCCCCCC(=O)N[C@H]1CCCCNC1=O
Second: CCCCCCCCCCCCCCCC(=O)N[C@@H]1CCCCNC1=O
The EC50 of the first is 13-fold lower: 3 nM for the first, 40 nM for the second. The first is the more potent here.

Going from `C=CCCCCCCCCC(=O)N[C@H]1CCNC1=O` to `C=CCCCCCCCCC(=O)N[C@H]1CCC(=O)NC1=O`, the EC50 falls from 245 nM to 5 nM (49-fold).

Going from `CCCCCCCCCCCC(=O)N[C@H]1CCCCNC1=O` to `CCCCCCCCCCCCCC(=O)N[C@H]1CCCCNC1=O`, the EC50 falls from 15 nM to 5 nM (3-fold).

First: CCCCCCCCCCC(=O)N[C@@H](CCC(N)=O)C(=O)O
Second: CCCCCCCCCCC(=O)N[C@H](CCC(N)=O)C(=O)O
The EC50 of the first is 1.7-fold lower: 30000 nM for the first, 50000 nM for the second.

Compared with `CCCCCCCC/C=C\CCCCCCCC(=O)N[C@@H]1CCCCNC1=O`, `CCCCCCCCCCC(=O)NC1CCC(=O)NC1=O` (single isomer, unassigned) is 3-fold lower in EC50: 30 nM for the first, 10 nM for the second.

`N[C@@H](CCCC(=O)O)C(=O)O` [(S)-2-AMINOADIPIC ACID] and `N[C@H](CCC(=O)O)C(=O)O` [D-GLUTAMATE] cannot be ordered by EC50: over 100000 nM for the first, over 100000 nM for the second.
